≈ marks a conversion by molar mass, not a printed value.

Usually MIC stands for the lowest concentration found to suppress growth.

Experiment in all cases: ≥ marks a high value that may be exact or a test limit, other limits are often not marked, values filed in µg/mL are converted to µM
The test system of assay [1] is Bacillus subtilis ATCC 6633.
For assay [2], the system named is Staphylococcus aureus FDA 209P.
Assay [3] relates to Salmonella enterica subsp. enterica serovar Typhimurium ATCC 14028s.
The test system of assay [4] is Pseudomonas aeruginosa H744.
Assay [5] relates to Pseudomonas aeruginosa K799.
Assay [6] concerns Pseudomonas aeruginosa ATCC 27853.
In assay [7] the test system is Pseudomonas aeruginosa H374.
Assay [8] deals with Escherichia coli KF111.
In assay [9] the test system is Staphylococcus epidermidis.
For assay [10], the system named is Escherichia coli UB1005.
In assay [11] the test system is Escherichia coli KF130.
Assay [12] relates to Pseudomonas aeruginosa ATCC 13388.
Assay [13] relates to Staphylococcus aureus ATCC 6538.
The subject of assay [14] is Klebsiella pneumoniae ATCC 10031.
The test system of assay [15] is Salmonella enterica subsp. enterica serovar Typhimurium ATCC 14028.
Assay [16] relates to Escherichia coli ATCC 11219.
Assay [17] relates to Bacillus megaterium Bm11.
Assay [18] concerns Escherichia coli ML-35.
Assay [19] relates to Staphylococcus aureus ATCC 25923.
Assay [20] relates to Pseudomonas aeruginosa KCTC 1637.
Assay [21] has as its system Proteus vulgaris.
For assay [22], the system named is Escherichia coli KCTC 1682.
The subject of assay [23] is Bacillus megaterium KCTC 1096.
Assay [24] deals with Bacillus subtilis KCTC 1918.
For assay [25], the system named is Staphylococcus aureus KCTC 1621.

Consider `CC(C)C[C@H](NC(=O)[C@H](CCC(N)=O)NC(=O)[C@H](CCC(N)=O)NC(=O)[C@H](C)NC(=O)CNC(=O)[C@H](C)NC(=O)[C@H](CCCCN)NC(=O)CNC(=O)[C@@H](NC(=O)[C@H](CO)NC(=O)[C@H](CCCCN)NC(=O)[C@H](CC(C)C)NC(=O)[C@H](CC(C)C)NC(=O)[C@H](Cc1ccc(O)cc1)NC(=O)[C@H](CCCCN)NC(=O)[C@H](C)NC(=O)CNC(=O)[C@H](C)NC(=O)[C@H](CCCCN)NC(=O)[C@H](Cc1ccccc1)NC(=O)[C@H](CC(C)C)NC(=O)[C@H](CO)NC(=O)[C@H](CO)NC(=O)[C@H](Cc1ccccc1)NC(=O)CN)C(C)C)C(=O)N[C@@H](C)C(=O)N[C@H]1CSSC[C@@H](C(=O)N[C@@H](C)C(=O)O)NC(=O)[C@H](CC(N)=O)NC(=O)[C@H](CC(N)=O)NC(=O)[C@H](C)NC(=O)[C@H](C)NC(=O)[C@H](CCCCN)NC1=O` [GFSSLFKAGAKYLLKSVGKAGAQQLACKAANNCA], for which the MIC is 18.7 µM (≈ 64 µg/mL) in assay [1] and 4.36 µM (≈ 14.9 µg/mL) in [2].
As for `CC[C@H](C)[C@H](NC(=O)[C@@H]1CCCN1C(=O)[C@H](CCCCN)NC(=O)[C@H](CC(C)C)NC(=O)[C@H](C)NC(=O)[C@@H](NC(=O)[C@H](Cc1ccc(O)cc1)NC(=O)[C@H](Cc1ccccc1)NC(=O)[C@@H](NC(=O)[C@@H](NC(=O)[C@H](CCCCN)NC(=O)[C@@H](NC(=O)[C@@H]1CCCN1C(=O)[C@H](CO)NC(=O)[C@H](CCCCN)NC(=O)[C@H](Cc1ccccc1)NC(=O)[C@@H](NC(=O)[C@H](CCCCN)NC(=O)[C@H](CC(C)C)NC(=O)[C@H](Cc1ccccc1)NC(=O)[C@H](CO)NC(=O)[C@H](CCCCN)NC(=O)[C@H](Cc1c[nH]c2ccccc12)NC(=O)[C@@H](N)CCCCN)[C@@H](C)O)C(C)C)[C@@H](C)O)C(C)C)[C@@H](C)O)C(=O)N[C@@H](CO)C(=O)N[C@@H](CO)C(=O)O` [KWKSFLKTFKSPVKTVFYTALKPISS], the MIC in assay [3] came out at 5.28 µM (≈ 16 µg/mL); in [4], 10.6 µM (≈ 32 µg/mL); in assay [5], 10.6 µM (≈ 32 µg/mL); in [6], 8 µM (≈ 24.3 µg/mL); in assay [7], 10.6 µM (≈ 32 µg/mL); in [8], 1.32 µM (≈ 4 µg/mL). The MIC in assay [9] was 10.6 µM (≈ 32 µg/mL); in assay [10], 0.659 µM (≈ 2 µg/mL); in [11] it was 1.32 µM (≈ 4 µg/mL).
As to `CC[C@H](C)[C@H](NC(=O)CN)C(=O)N[C@@H](Cc1cnc[nH]1)C(=O)N[C@@H](CCCCN)C(=O)N[C@H](C(=O)N[C@@H](CC(C)C)C(=O)N[C@@H](CCCCN)C(=O)N[C@@H](Cc1ccc(O)cc1)C(=O)NCC(=O)N[C@@H](CCCCN)C(=O)N1CCC[C@H]1C(=O)N[C@@H](CO)C(N)=O)[C@@H](C)CC` [GIHKILKYGKPS], the MIC in [12] is 20 µM (≈ 26.8 µg/mL); in [13], 10 µM (≈ 13.4 µg/mL); in assay [14], 5 µM (≈ 6.7 µg/mL); in [15], 10 µM (≈ 13.4 µg/mL); in assay [16], 5 µM (≈ 6.7 µg/mL).
In the case of `CC[C@H](C)[C@H](NC(=O)[C@@H]1CCCN1C(=O)[C@H](CCCCN)NC(=O)[C@H](CC(C)C)NC(=O)[C@H](C)NC(=O)[C@@H](NC(=O)[C@@H](NC(=O)[C@H](CC(C)C)NC(=O)[C@@H](NC(=O)[C@H](CCCCN)NC(=O)[C@H](CCCCN)NC(=O)[C@H](C)NC(=O)[C@H](C)NC(=O)[C@H](CO)NC(=O)[C@@H](NC(=O)[C@H](CC(C)C)NC(=O)[C@H](CCCCN)NC(=O)[C@H](CCCCN)NC(=O)[C@H](CC(C)C)NC(=O)[C@H](Cc1ccccc1)NC(=O)[C@H](CO)NC(=O)[C@H](CCCCN)NC(=O)[C@H](Cc1c[nH]c2ccccc12)NC(=O)[C@@H](N)CCCCN)[C@@H](C)O)C(C)C)[C@@H](C)O)[C@@H](C)O)C(=O)N[C@@H](CO)C(=O)N[C@@H](CO)C(=O)O` [KWKSFLKKLTSAAKKVLTTALKPISS], the MIC in assay [3] was found to be 1.39 µM (≈ 4 µg/mL); in assay [4], 1.39 µM (≈ 4 µg/mL); in [5], 2.78 µM (≈ 8 µg/mL); in assay [6], 4 µM (≈ 11.5 µg/mL); in assay [7] it was 1.39 µM (≈ 4 µg/mL); in assay [8], 0.348 µM (≈ 1 µg/mL). Moreover, the MIC in assay [9] turned out to be 1.39 µM (≈ 4 µg/mL); in assay [10], 0.348 µM (≈ 1 µg/mL); in [11], 0.348 µM (≈ 1 µg/mL).
As for `CC[C@H](C)[C@H](NC(=O)[C@H](CCCCN)NC(=O)[C@H](CCCCN)NC(=O)[C@H](CCCN=C(N)N)NC(=O)[C@H](CC(C)C)NC(=O)[C@H](CCCN=C(N)N)NC(=O)[C@H](CCCN=C(N)N)NC(=O)[C@H](CC(C)C)NC(=O)[C@H](CC(C)C)NC(=O)CN)C(=O)NCC(=O)N[C@@H](CCC(=O)O)C(=O)N[C@H](C(=O)N[C@@H](Cc1ccccc1)C(=O)N[C@@H](CCCCN)C(=O)N[C@@H](CCCCN)C(=O)N[C@@H](Cc1ccc(O)cc1)C(=O)NCC(=O)O)[C@@H](C)CC` [GLLRRLRKKIGEIFKKYG], the MIC turned out to be 4 µM (≈ 8.7 µg/mL) in assay [17], 1 µM (≈ 2.18 µg/mL) in assay [15], 2 µM (≈ 4.35 µg/mL) in [18] and 4 µM (≈ 8.7 µg/mL) in assay [19].
Regarding `CC[C@H](C)[C@H](NC(=O)[C@H](CCCCN)NC(=O)[C@H](CCCCN)NC(=O)[C@H](Cc1ccccc1)NC(=O)[C@H](CC(C)C)NC(=O)[C@H](CCCCN)NC(=O)[C@H](Cc1c[nH]c2ccccc12)NC(=O)[C@@H](N)CCCCN)C(=O)N[C@@H](CO)C(=O)N[C@@H](CCCCN)C(=O)N[C@@H](Cc1ccccc1)C(=O)N[C@@H](CC(C)C)C(=O)N[C@@H](Cc1cnc[nH]1)C(=O)N[C@@H](CC(C)C)C(=O)N[C@@H](C)C(=O)N[C@@H](CCCCN)C(=O)N[C@@H](CCCCN)C(=O)N[C@@H](Cc1ccccc1)C(N)=O` [KWKLFKKISKFLHLAKKF], the MIC in [20] amounted to 6.25 µM (≈ 14.3 µg/mL); in assay [21], 6.25 µM (≈ 14.3 µg/mL); in [22], 25 µM (≈ 57.2 µg/mL); in assay [23] it was 3.12 µM (≈ 7.16 µg/mL); in assay [24], 1.56 µM (≈ 3.57 µg/mL); in assay [25], 6.25 µM (≈ 14.3 µg/mL).
Turning to `CC[C@H](C)[C@H](NC(=O)CNC(=O)[C@@H](N)Cc1c[nH]c2ccccc12)C(=O)N[C@@H](CCCN=C(N)N)C(=O)N[C@@H](CC(=O)O)C(=O)N[C@H](C(=O)N[C@@H](CC(C)C)C(=O)N[C@@H](CCCCN)C(=O)N[C@@H](Cc1ccc(O)cc1)C(=O)NCC(=O)N[C@@H](CCCCN)C(=O)N1CCC[C@H]1C(=O)N[C@@H](CO)C(=O)O)[C@@H](C)CC` [WGIRDILKYGKPS], the MIC is 5 µM (≈ 7.66 µg/mL) in assay [12]; 15 µM (≈ 23 µg/mL) in [13]; 30 µM (≈ 46 µg/mL) in [14]; 8 µM (≈ 12.3 µg/mL) in [15]; 15 µM (≈ 23 µg/mL) in assay [16].
For `CC[C@H](C)[C@H](NC(=O)[C@H](CCCCN)NC(=O)[C@H](CCCCN)NC(=O)[C@H](Cc1ccccc1)NC(=O)[C@H](CC(C)C)NC(=O)[C@H](CCCCN)NC(=O)[C@@H](N)Cc1ccccc1)C(=O)N1CCC[C@H]1C(=O)N[C@@H](CCCCN)C(=O)N[C@@H](Cc1ccccc1)C(=O)N[C@@H](CC(C)C)C(=O)N[C@@H](Cc1cnc[nH]1)C(=O)N[C@@H](CC(C)C)C(=O)N[C@@H](C)C(=O)N[C@@H](CCCCN)C(=O)N[C@@H](CCCCN)C(=O)N[C@@H](Cc1ccccc1)C(N)=O` [FKLFKKIPKFLHLAKKF], the MIC is 1.56 µM (≈ 3.33 µg/mL) in assay [20]; 1.56 µM (≈ 3.33 µg/mL) in assay [21]; 6.26 µM (≈ 13.4 µg/mL) in assay [22]; 0.78 µM (≈ 1.66 µg/mL) in [23]; 0.78 µM (≈ 1.66 µg/mL) in assay [24]; 3.12 µM (≈ 6.66 µg/mL) in assay [25].
Turning to `CC[C@H](C)[C@H](NC(=O)CN)C(=O)N[C@@H](CCCCN)C(=O)N[C@@H](CCCCN)C(=O)N[C@H](C(=O)N[C@@H](CC(C)C)C(=O)N[C@@H](CCCCN)C(=O)N[C@@H](Cc1ccc(O)cc1)C(=O)NCC(=O)N[C@@H](CCCCN)C(=O)N[C@@H](CCCCN)C(=O)N[C@@H](CO)C(N)=O)[C@@H](C)CC` [GIKKILKYGKKS], the MIC in assay [12] was not below 50 µM; in assay [13], 5 µM (≈ 6.81 µg/mL); in [14], not below 50 µM; in assay [15], 20 µM (≈ 27.2 µg/mL); in assay [16], 20 µM (≈ 27.2 µg/mL).

(Values after DBAASP.)
